The target in test [1] is δ-opioid receptor (Rattus norvegicus, UniProt P33533). Briefly: Rat brain δ-opioid receptor binding assay ([3H]DPDPE).
For another test, the target named is μ-opioid receptor (Rattus norvegicus, UniProt P33535). Briefly: Rat brain μ-opioid receptor binding assay ([3H]DAMGO).
In test [2] the test system is acetylcholine bromide-induced abdominal constriction response. Nature of the test: Mouse acetylcholine bromide-induced abdominal constriction assay (MAIT). It counts as in vivo. Particulars: po, 0.5 h, 150 μmole/Kg p.o., acetylcholine bromide 5.5 mg/kg i.p. 30 min later. The method, then: The mouse acetylcholine-induced abdominal constriction assay, as described by Collier et al. in […]., 32: 295-310, 1968 with minor modifications, was used to assess analgesic potency of the compounds of formula (I). The test drugs or appropriate vehicles were administered orally (p.o.) and 30 min later the animal received an intraperitoneal (i.p.) injection of 5.5 mg/kg acetylcholine bromide (Matheson, Coleman and Bell, East Rutherford, N.J.). The mice were then placed in groups of three into glass bell jars and observed for a ten min observation period for the occurrence of an abdominal constriction response (defined as a wave of constriction and elongation passing caudally along the abdominal wall, accompanied by a twisting of the trunk and followed by extension of the hind limbs). For compounds of the present invention, the percent inhibition of this response to a nociceptive stimulus (equated to % analgesia) was calculated as follows: [formula]

The target in test [3] is T1, δ-opioid receptor (Homo sapiens, UniProt P41143).
T1 construct: purchased Receptor Biology, Baltimore, Md; host or cells: CHO cells (membranes)
Briefly: Scintillation screening assay for δ-opioid receptor binding ([3H]bremazocine). Particulars: cloned human receptor in CHO cell membranes, [3H]bremazocine 2.4 nM, read-out: δ-Opioid Receptor Binding (% Inhibition), % I @ 25 μM. From the text: Scintillation Screening Assay for δ-Opioid Receptor Binding
This is a receptor based screen to detect the competitive binding of test compounds at the δ-opioid receptor against the radioligand, [^3H]bremazocine (S.A.=25.5 Cl/mmol, Dupont/NEN, Cambridge, Mass.). Unknown compounds that bind to the same receptor as the radioligand will compete for the receptor and reduce the amount of radioligand which binds to the receptor. This is detected as a decreased scintillation signal from that particular incubation. The greater affinity an unknown has for the receptor, the larger the observed decrease in […] to the receptor; thus the assay is in the format of an inhibition study.
The receptor is a cloned human cDNA expressed in mammalian CHO cells. Membranes prepared from these cells are purchased from Receptor Biology, Baltimore, Md. The reaction buffer is composed as follows: HEPES (50 mM final), MgCl.6H2O (5 mM final), o-phenanthroline (20 mg/l), aprotinin (10 mg/l), Pefabloc SC (250 mg/l), leupeptin (0.5 mg/l), pepstatin A (0.7 mg/l), trypsin inhibitor (25 mg/l), chymostatin (10 mg/l), pH=7.2. Naloxone, 10 uM, is used to define non-specific binding. The assay employs filtration to capture receptor and bound ligand.
The receptor (membrane) preparation (28 ug protein) is allowed to incubate with the opioid receptor radioligand ([^3H]bremazocine, 2.4 nM) in 96-well plates until equilibrium is reached (>2 hr). Following incubation with the radioligand at 23° C., the well contents are filtered onto 96-well Whatman GF/C filter plates using a Packard cell harvester. Radioligand bound to the receptor also remains on the filter. The filters are rinsed three times with 0.5 mL of physiological saline (0.9% NaCl) to remove any unbound radioligand from the filter. Filters are dried and scintillation fluid is then added to the filters which emits light in proportion to the amount of radioactivity on the filter which is determined using an Packard Topcount scintillation counter. Data are reported as percent inhibition of control binding.

The mark [4] stands for this setting: rat forebrain preparation, [3H]DPDPE, 25° C., read-out: δ-Opioid Receptor Binding (Ki nM).
Where [5] appears, read: rat forebrain preparation, [3H]DAMGO, 25° C., read-out: μ-Opioid Receptor Binding (Ki nM).

Like-named read-outs stand apart in the source and are kept apart here.

Chain of μ-opioid receptor (P33535 whole entry): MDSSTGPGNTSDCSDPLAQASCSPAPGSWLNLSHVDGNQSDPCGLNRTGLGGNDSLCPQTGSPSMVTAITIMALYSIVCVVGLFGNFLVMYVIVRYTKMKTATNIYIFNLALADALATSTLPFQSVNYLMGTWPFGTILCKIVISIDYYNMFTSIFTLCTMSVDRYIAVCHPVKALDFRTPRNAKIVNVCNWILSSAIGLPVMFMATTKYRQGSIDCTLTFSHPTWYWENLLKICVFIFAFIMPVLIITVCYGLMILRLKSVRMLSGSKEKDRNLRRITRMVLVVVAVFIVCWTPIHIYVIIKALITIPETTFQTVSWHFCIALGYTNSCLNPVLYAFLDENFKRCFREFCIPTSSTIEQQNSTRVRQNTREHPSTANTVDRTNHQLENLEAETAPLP
T1 sequence (P41143 whole entry): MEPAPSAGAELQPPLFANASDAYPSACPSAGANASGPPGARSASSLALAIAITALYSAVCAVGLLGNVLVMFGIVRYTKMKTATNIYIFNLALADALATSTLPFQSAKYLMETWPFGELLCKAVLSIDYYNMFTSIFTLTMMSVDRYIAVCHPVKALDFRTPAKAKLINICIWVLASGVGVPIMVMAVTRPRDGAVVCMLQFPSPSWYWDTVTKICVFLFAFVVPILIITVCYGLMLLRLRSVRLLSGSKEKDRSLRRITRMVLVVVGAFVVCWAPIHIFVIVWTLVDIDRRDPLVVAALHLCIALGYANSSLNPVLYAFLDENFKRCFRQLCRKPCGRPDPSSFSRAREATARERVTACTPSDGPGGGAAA
Chain of δ-opioid receptor (Rattus norvegicus, UniProt P33533) (P33533 whole entry): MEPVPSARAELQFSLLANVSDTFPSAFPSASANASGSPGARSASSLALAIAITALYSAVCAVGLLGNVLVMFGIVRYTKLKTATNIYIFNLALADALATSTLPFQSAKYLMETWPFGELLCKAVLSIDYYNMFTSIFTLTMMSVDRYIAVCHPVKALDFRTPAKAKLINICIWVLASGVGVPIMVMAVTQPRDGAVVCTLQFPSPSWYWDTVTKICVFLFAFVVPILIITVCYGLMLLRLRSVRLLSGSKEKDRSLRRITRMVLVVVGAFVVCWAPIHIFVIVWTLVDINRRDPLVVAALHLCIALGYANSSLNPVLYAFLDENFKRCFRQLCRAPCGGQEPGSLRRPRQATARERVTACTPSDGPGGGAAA

Consider `CCN(CC)C(=O)c1ccc(C(=Nc2ccccc2Cl)N2CCN(CCc3cccs3)CC2)cc1` [Compound 21, 4-[[(2-chlorophenyl)imino][4-[2-(2-thienyl)ethyl]-1-piperazinyl]methyl]-N,N-diethyl-benzamide], for which the Ki at δ-opioid receptor [1] is 95.3 nM; on μ-opioid receptor, greater than 10000 nM. Moreover, the inhibition in vivo at 150 µmol/kg in test [2] was 40%.

On to `CCN1CCN(C(=Nc2ccccc2F)c2ccc(C(=O)N(CC)CC)cc2)CC1` [Compound 10, N,N-diethyl-4-[(4-ethyl-1-piperazinyl)[(2-fluorophenyl)imino]methyl]-benzamide], for which, on δ-opioid receptor [3], the inhibition at 25 µM is 102%. Besides, the Ki was 118 nM on δ-opioid receptor [1] and greater than 10000 nM on μ-opioid receptor. Besides, the inhibition in vivo at 150 µmol/kg in test [2] is 26.7%.

As to `C=CCN1C[C@H](C)N(/C(=N/c2ccccc2)c2ccc(C(=O)N(CC)CC)cc2)C[C@H]1C` [Compound 16, 4-[(E)-[(2S,5R)-2,5-dimethyl-4-(2-propenyl)piperazinyl](phenylimino)methyl]-N,N-diethyl-benzamide], the figures for the inhibitory constant (Ki) at δ-opioid receptor [1] (setting [4]) and on μ-opioid receptor (setting [5]) were 170 nM and 4330 nM, respectively. In test [2], this compound registered an inhibition in vivo at 150 µmol/kg of 50%.

`CCN1CCN(C(=Nc2cccc(Br)c2)c2ccc(C(=O)N(CC)CC)cc2)CC1` [Compound 4, 4-[[(3-bromophenyl)imino](4-ethyl-1-piperazinyl)methyl]-N,N-diethyl-benzamide]: on δ-opioid receptor [3], the inhibition at 25 µM was 100%. For the same compound, the results for the Ki on δ-opioid receptor [1] and on μ-opioid receptor were 57.6 nM and greater than 10000 nM, respectively. The same compound returned an inhibition in vivo at 150 µmol/kg in test [2] of 7.7%.

As for `CCN(CC)C(=O)c1ccc(C(=Nc2ccccc2Cl)N2CCN(Cc3ccccc3)CC2)cc1` [Compound 20, 4-[[(2-chlorophenyl)imino][4-(phenylmethyl)-1-piperazinyl]methyl]-N,N-diethyl-benzamide], the Ki at δ-opioid receptor [1] was 11.8 nM; at μ-opioid receptor, greater than 10000 nM. In test [2], this compound displayed an inhibition in vivo at 150 µmol/kg of 23.1%.

For the compound `CCN1CCN(C(=Nc2cccc(OC)c2)c2ccc(C(=O)OC)cc2)CC1` [Compound 47, 4-[(4-ethyl-1-piperazinyl)[(3-methoxyphenyl)imino]methyl]-benzoic acid methyl ester], the inhibition at 25 µM at δ-opioid receptor [3] came out at 91%. Moreover, in test [2], the inhibition in vivo at 150 µmol/kg was 26.7%.

Consider `CCN1CCN(C(=Nc2cccc(Cl)c2)c2ccc(C(=O)N(CC)CC)cc2)CC1` [Compound 3], for which, on δ-opioid receptor [3], the inhibition at 25 µM is 103%. The Ki on δ-opioid receptor [1] is 62.6 nM; at μ-opioid receptor it was greater than 10000 nM. Further, in test [2], the inhibition in vivo at 150 µmol/kg worked out at 40%.

On to `CCN1CCN(C(=Nc2ccccc2Cl)c2ccc(C(=O)N(CC)CC)cc2)CC1` [Compound 6, 4-[[(2-chlorophenyl)imino](4-ethyl-1-piperazinyl)methyl]-N,N-diethyl-benzamide], for which the inhibition at 25 µM at δ-opioid receptor [3] came out at 103%. The Ki is 91.1 nM at δ-opioid receptor [1] and greater than 10000 nM at μ-opioid receptor. The inhibition in vivo at 150 µmol/kg in test [2] came out at 20%.

On to `CCN1CCN(C(=Nc2ccccc2)c2ccc(C(=O)OC)cc2)CC1` [Compound 46, 4-[(4-ethyl-1-piperazinyl)(phenylimino)methyl]-benzoic acid methyl ester], for which, at δ-opioid receptor [3], the inhibition at 25 µM was found to be 94%. In test [2], this compound registered an inhibition in vivo at 150 µmol/kg of 26.7%.

In the case of `C=CCN1CCN(C(=Nc2ccccc2Cl)c2ccc(C(=O)N(CC)CC)cc2)CC1` [Compound 19, 4-[[(2-chlorophenyl)imino][4-(2-propenyl)-1-piperazinyl]methyl]-N,N-diethyl-benzamide], the Ki at δ-opioid receptor [1] amounted to 20.5 nM; on μ-opioid receptor, 7600 nM. In test [2], this compound came in with an inhibition in vivo at 150 µmol/kg of 40%.

For the compound `CCCN(CCC)C(=O)c1ccc(C(=Nc2ccccc2F)N2CCN(CC)CC2)cc1` [Compound 11, 4-[(4-ethyl-1-piperazinyl)[(2-fluorophenyl)imino]methyl]-N,N-dipropyl-benzamide], the inhibition at 25 µM on δ-opioid receptor [3] was determined as 98%. For the same compound, the Ki on δ-opioid receptor [1] (setting [4]) is 256 nM; on μ-opioid receptor (setting [5]) it was greater than 10000 nM.
